Source: ChEMBL document CHEMBL5608161, “Identification of 4-(6-((2-methoxyphenyl)amino)pyrazin-2-yl)benzoic acids as CSNK2A inhibitors with antiviral activity and improved selectivity over PIM3” (Bioorg Med Chem Lett, 2024)
The source made the active and inactive calls. The rule behind the calls is not given here.

Tests used:
Murine hepatitis virus = assay: microbe, parasite or virus in culture; details: Murine coronavirus, DB
Description: Antiviral activity against MHV expressing nLuc infected in human DB cells assessed as inhibition of viral replication

cells = details: Homo sapiens, HEK293
Description: Inhibition of Nano Luc-fused CSNK2A (unknown origin) expressed in HEK293 cells using NanoGlo as substrate by NanoBRET In-cell target engagement assay

[1] = biological target: Death-associated protein kinase 3 (Homo sapiens) (UniProt O43293); assay: Binding affinity to DAPK3 (unknown origin) assessed as melting temperature by thermal shift assay
Death-associated protein kinase 3 (Homo sapiens), sequence (O43293 whole entry, looked up): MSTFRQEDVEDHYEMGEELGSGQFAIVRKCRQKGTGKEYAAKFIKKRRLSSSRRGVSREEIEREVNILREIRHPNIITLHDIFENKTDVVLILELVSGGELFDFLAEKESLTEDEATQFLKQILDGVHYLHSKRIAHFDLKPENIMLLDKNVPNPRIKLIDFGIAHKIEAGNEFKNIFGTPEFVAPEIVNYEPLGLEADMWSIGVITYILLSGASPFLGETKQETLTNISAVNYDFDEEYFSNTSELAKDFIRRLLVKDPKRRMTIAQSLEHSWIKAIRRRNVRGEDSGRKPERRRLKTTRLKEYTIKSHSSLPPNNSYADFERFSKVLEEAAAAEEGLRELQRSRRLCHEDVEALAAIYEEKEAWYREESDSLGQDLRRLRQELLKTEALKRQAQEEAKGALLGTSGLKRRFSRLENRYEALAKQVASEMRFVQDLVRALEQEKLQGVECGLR

[2] = biological target: Serine/threonine-protein kinase pim-1 (Homo sapiens) (UniProt P11309); assay: Binding affinity to PIM1 (unknown origin) assessed as melting temperature by thermal shift assay
Serine/threonine-protein kinase pim-1 (Homo sapiens), sequence (P11309 whole entry, looked up): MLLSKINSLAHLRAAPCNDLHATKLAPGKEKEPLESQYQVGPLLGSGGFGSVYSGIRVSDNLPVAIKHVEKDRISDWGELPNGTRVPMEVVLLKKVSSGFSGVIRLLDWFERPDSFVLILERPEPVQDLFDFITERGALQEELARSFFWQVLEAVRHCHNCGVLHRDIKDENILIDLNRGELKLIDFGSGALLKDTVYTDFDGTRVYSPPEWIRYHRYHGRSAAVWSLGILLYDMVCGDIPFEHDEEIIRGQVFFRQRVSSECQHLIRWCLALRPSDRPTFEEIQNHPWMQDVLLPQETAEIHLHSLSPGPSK

[3] = biological target: BMP-2-inducible protein kinase (Homo sapiens) (UniProt Q9NSY1); assay: Binding affinity to BIKE (unknown origin) assessed as melting temperature by thermal shift assay
BMP-2-inducible protein kinase (Homo sapiens), sequence (Q9NSY1 whole entry, looked up): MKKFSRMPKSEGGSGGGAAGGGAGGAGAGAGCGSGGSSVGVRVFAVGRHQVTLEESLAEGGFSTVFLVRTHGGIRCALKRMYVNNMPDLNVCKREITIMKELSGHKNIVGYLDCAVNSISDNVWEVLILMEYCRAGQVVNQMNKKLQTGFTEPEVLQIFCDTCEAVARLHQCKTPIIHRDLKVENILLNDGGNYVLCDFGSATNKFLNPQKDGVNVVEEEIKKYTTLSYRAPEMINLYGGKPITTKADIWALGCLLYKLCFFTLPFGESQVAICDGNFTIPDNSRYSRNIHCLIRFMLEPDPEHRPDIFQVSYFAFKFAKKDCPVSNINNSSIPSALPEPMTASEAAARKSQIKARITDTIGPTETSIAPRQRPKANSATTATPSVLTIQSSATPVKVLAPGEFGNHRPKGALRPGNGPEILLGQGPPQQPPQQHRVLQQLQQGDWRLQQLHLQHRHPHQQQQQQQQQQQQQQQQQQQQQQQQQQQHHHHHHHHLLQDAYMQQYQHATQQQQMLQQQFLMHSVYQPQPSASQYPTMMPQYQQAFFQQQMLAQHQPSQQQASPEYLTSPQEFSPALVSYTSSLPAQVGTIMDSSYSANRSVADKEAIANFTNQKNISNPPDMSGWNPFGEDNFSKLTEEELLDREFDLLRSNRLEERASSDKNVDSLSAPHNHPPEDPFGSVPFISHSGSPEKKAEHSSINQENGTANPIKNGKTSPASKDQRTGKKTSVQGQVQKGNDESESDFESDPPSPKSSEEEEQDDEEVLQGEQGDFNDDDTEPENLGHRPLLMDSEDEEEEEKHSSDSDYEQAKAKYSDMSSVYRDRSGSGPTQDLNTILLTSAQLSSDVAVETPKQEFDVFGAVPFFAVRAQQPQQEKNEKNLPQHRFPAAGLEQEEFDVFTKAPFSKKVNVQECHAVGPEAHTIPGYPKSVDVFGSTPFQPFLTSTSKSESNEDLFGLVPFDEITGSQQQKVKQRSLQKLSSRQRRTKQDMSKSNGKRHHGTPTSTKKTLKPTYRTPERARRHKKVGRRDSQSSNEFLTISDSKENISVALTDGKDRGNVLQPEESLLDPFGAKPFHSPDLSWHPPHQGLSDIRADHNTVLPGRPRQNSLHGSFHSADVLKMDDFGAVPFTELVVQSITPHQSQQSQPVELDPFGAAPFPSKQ

[4] = biological target: T1, Mitogen-activated protein kinase 15 (Homo sapiens) (UniProt Q8TD08); assay: Binding affinity to MAPK15 (unknown origin) assessed as melting temperature by thermal shift assay
T1 sequence (whole entry): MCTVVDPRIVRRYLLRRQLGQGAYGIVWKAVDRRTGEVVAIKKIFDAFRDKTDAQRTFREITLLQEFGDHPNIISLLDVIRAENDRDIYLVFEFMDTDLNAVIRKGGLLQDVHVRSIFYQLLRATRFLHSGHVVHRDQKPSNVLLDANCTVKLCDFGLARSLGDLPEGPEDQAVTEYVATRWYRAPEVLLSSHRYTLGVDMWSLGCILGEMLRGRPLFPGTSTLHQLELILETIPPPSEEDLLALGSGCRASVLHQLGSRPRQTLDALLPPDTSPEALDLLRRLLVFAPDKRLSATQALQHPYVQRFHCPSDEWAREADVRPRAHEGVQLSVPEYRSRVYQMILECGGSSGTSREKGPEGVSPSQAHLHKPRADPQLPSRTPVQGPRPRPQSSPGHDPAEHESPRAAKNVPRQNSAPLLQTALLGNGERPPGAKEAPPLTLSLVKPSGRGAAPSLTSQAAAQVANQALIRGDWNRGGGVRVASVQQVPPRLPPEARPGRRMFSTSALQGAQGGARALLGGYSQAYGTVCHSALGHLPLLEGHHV

[5] = biological target: T2, Dual specificity tyrosine-phosphorylation-regulated kinase 2 (Homo sapiens) (UniProt Q92630); assay: Binding affinity to DYRK2 (unknown origin) assessed as melting temperature by thermal shift assay
T2 sequence (whole entry): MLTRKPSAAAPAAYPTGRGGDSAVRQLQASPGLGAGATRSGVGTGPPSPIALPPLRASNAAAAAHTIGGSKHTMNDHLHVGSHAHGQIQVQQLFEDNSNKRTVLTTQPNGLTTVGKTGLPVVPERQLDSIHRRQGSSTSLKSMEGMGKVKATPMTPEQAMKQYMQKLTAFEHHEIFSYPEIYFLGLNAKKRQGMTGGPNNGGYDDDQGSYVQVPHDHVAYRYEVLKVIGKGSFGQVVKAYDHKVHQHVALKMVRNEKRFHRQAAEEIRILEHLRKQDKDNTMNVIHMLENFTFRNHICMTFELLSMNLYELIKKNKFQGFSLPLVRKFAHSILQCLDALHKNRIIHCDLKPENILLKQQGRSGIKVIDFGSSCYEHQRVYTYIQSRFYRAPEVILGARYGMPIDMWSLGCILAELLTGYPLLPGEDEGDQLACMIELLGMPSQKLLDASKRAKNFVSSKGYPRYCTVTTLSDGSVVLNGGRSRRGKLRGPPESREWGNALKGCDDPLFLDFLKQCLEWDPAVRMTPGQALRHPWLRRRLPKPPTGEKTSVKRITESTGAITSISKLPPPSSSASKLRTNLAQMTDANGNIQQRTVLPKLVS

HEK293 = assay: Inhibition of Nano Luc-fused CSNK2A (unknown origin) expressed in HEK293 cells using NanoGlo as substrate at 10 uM by NanoBRET In-cell target engagement assay; format: cell-based; details: Homo sapiens

SMILES | IC50 (cells) | inhibition (HEK293) | further results
CC(C)C(=O)OC[C@H]1O[C@@H](n2cc/c(=N\O)[nH]c2=O)[C@H](O)[C@@H]1O [MOLNUPIRAVIR] |  |  | IC50 (Murine hepatitis virus): 1400 nM
CC(C)Nc1ccc2cnn(-c3cncc(-c4ccc(C(=O)O)c(Cl)c4)n3)c2c1 | 260 nM |  | 
COc1ccc(OC(C)C)cc1Nc1cncc(-c2ccc(C(=O)O)cc2)n1 |  |  | Tm [1]: > 9 °C; Tm [2]: > 9 °C; Tm [3]: > 9 °C; Tm [4]: > 9 °C; Tm [5]: > 9 °C
CC(C)Nc1ccc2cnn(-c3cncc(-c4ccc(C(N)=O)cc4)n3)c2c1 |  | inactive | 
O=C(O)c1ccc(-c2cncc(-n3ncc4ccc(NCCN5CCOCC5)cc43)n2)cc1 | 2600 nM |  | 
O=C(O)c1ccc(-c2cncc(-n3ncc4ccc(NC5CCCC5)cc43)n2)cc1 | 2200 nM |  | 
COc1cc(-c2cncc(-n3ncc4ccc(NC(C)C)cc43)n2)ccc1C(=O)O |  | inactive | 
CC(=O)Nc1ccc2cnn(-c3cncc(-c4ccc(C(=O)O)cc4)n3)c2c1 | 4020 nM |  | 
CC(C)Nc1ccc2cnn(-c3cncc(-c4ccc(S(N)(=O)=O)cc4)n3)c2c1 |  | inactive | 
